Reference: publication PMC5218480 (PLoS ONE, 2017)

System: MV-4-11 cells
Test: Gene expression microarray analysis (Affymetrix PrimeView) and GSEA
Type: cell-based, human
Parameters: RFU PODN (11730768_x_at) / Fold change /veh PODN (11730768_x_at) / RFU LINC00158 (11744669_a_at) / Fold change /veh LINC00158 (11744669_a_at) / RFU DUSP10 (11751237_a_at) / Fold change /veh DUSP10 (11751237_a_at) / RFU ID3 (11757404_x_at) / Fold change /veh ID3 (11757404_x_at) / RFU PLEKHG5 (11737974_s_at) / Fold change /veh PLEKHG5 (11737974_s_at) / RFU LRRC4B (11730491_at) / Fold change /veh LRRC4B (11730491_at) / RFU GIMAP4 (11747438_a_at) / Fold change /veh GIMAP4 (11747438_a_at) / RFU KRT8 (11758183_x_at) / Fold change /veh KRT8 (11758183_x_at) / RFU CNN1 (11734310_a_at) / Fold change /veh CNN1 (11734310_a_at) / RFU VPS37D (11726825_at) / Fold change /veh VPS37D (11726825_at) / RFU C10orf10 (11716522_x_at) / Fold change /veh C10orf10 (11716522_x_at) / RFU KIR2DL2 /// KIR2DL4 /// KIR2DL5A /// KIR2DL5B /// KIR2DS1 /// KIR2DS2 /// KIR2DS3 /// KIR2DS4 /// KIR3DL3 /// KIR3DL3 /// KIR3DS1 (11738374_at) / Fold change /veh KIR2DL2 /// KIR2DL4 /// KIR2DL5A /// KIR2DL5B /// KIR2DS1 /// KIR2DS2 /// KIR2DS3 /// KIR2DS4 /// KIR3DL3 /// KIR3DL3 /// KIR3DS1 (11738374_at) / RFU C1QL1 (11718748_at) / Fold change /veh C1QL1 (11718748_at) / RFU TMPRSS4 (11747572_a_at) / Fold change /veh TMPRSS4 (11747572_a_at) / RFU HAMP (11756126_x_at) / Fold change /veh HAMP (11756126_x_at) / RFU RNFT2 (11725882_a_at) / Fold change /veh RNFT2 (11725882_a_at) / RFU NR4A2 (11747474_a_at) / Fold change /veh NR4A2 (11747474_a_at) / RFU ABCC12 (11746883_a_at) / Fold change /veh ABCC12 (11746883_a_at) / RFU TMEM136 (11760407_x_at) / Fold change /veh TMEM136 (11760407_x_at) / RFU CLDN22 /// WWC2 (11732394_at) / Fold change /veh CLDN22 /// WWC2 (11732394_at) / RFU HLA-DPB1 (11760878_x_at) / Fold change /veh HLA-DPB1 (11760878_x_at) / RFU SPINT1 (11716480_a_at) / Fold change /veh SPINT1 (11716480_a_at) / RFU GAP43 (11754022_s_at) / Fold change /veh GAP43 (11754022_s_at) / RFU A4GNT (11735810_at) / Fold change /veh A4GNT (11735810_at) / RFU PRB3 (11715151_x_at) / Fold change /veh PRB3 (11715151_x_at) / RFU TUBB4B (11761932_at) / Fold change /veh TUBB4B (11761932_at) / RFU CAPN14 (11732068_a_at) / Fold change /veh CAPN14 (11732068_a_at) / RFU TMCC2 (11721928_a_at) / Fold change /veh TMCC2 (11721928_a_at) / RFU IRGQ (11745062_a_at) / Fold change /veh IRGQ (11745062_a_at) / RFU FAM174B (11720279_a_at) / Fold change /veh FAM174B (11720279_a_at) / RFU TMPRSS4 (11748680_a_at) / Fold change /veh TMPRSS4 (11748680_a_at) / RFU FAM212B (11763350_a_at) / Fold change /veh FAM212B (11763350_a_at) / RFU PLEKHG5 (11743358_a_at) / Fold change /veh PLEKHG5 (11743358_a_at) / RFU ZSCAN30 (11745921_a_at) / Fold change /veh ZSCAN30 (11745921_a_at) / RFU CMKLR1 (11741424_a_at) / Fold change /veh CMKLR1 (11741424_a_at) / RFU LOC101060620 /// MAPK8IP1 (11723275_at) / Fold change /veh LOC101060620 /// MAPK8IP1 (11723275_at) / RFU SPTSSB (11747773_x_at) / Fold change /veh SPTSSB (11747773_x_at) / RFU PRSS12 (11739890_at) / Fold change /veh PRSS12 (11739890_at) / RFU BIN1 (11741810_x_at) / Fold change /veh BIN1 (11741810_x_at) / RFU WNT11 (11732464_a_at) / Fold change /veh WNT11 (11732464_a_at) / RFU C10orf10 (11716521_a_at) / Fold change /veh C10orf10 (11716521_a_at) / RFU C5orf56 (11738089_at) / Fold change /veh C5orf56 (11738089_at) / RFU CYB561 (11721691_x_at) / Fold change /veh CYB561 (11721691_x_at) / RFU ANKRD19P (11752326_a_at) / Fold change /veh ANKRD19P (11752326_a_at) / RFU OR2T12 /// OR2T33 /// OR2T8 (11738714_s_at) / Fold change /veh OR2T12 /// OR2T33 /// OR2T8 (11738714_s_at) / RFU VCAN (11748164_a_at) / Fold change /veh VCAN (11748164_a_at) / RFU JSRP1 (11732532_at) / Fold change /veh JSRP1 (11732532_at) / RFU KRTAP10-11 (11738290_x_at) / Fold change /veh KRTAP10-11 (11738290_x_at) / RFU MYO3A (11730013_a_at) / Fold change /veh MYO3A (11730013_a_at) / RFU EBF3 (11725865_a_at) / Fold change /veh EBF3 (11725865_a_at) / RFU CAMK2N1 (11719241_x_at) / Fold change /veh CAMK2N1 (11719241_x_at) / RFU C5orf56 (11738088_a_at) / Fold change /veh C5orf56 (11738088_a_at) / RFU OLFML3 (11715873_a_at) / Fold change /veh OLFML3 (11715873_a_at) / RFU LOC100653217 /// NTM (11731650_a_at) / Fold change /veh LOC100653217 /// NTM (11731650_a_at) / RFU MAPK11 (11762145_a_at) / Fold change /veh MAPK11 (11762145_a_at) / RFU FIZ1 (11724087_x_at) / Fold change /veh FIZ1 (11724087_x_at) / RFU OASL (11726364_x_at) / Fold change /veh OASL (11726364_x_at) / RFU SOX15 (11748057_x_at) / Fold change /veh SOX15 (11748057_x_at) / RFU CD79A (11719716_a_at) / Fold change /veh CD79A (11719716_a_at) / RFU HIST1H1D (11736915_at) / Fold change /veh HIST1H1D (11736915_at) / RFU CASKIN2 (11723855_a_at) / Fold change /veh CASKIN2 (11723855_a_at) / RFU LOC730098 (11760151_x_at) / Fold change /veh LOC730098 (11760151_x_at) / RFU OR4N2 (11742367_at) / Fold change /veh OR4N2 (11742367_at) / RFU PRRT2 (11749266_a_at) / Fold change /veh PRRT2 (11749266_a_at) / RFU SNX32 (11753110_a_at) / Fold change /veh SNX32 (11753110_a_at) / RFU CDHR5 (11726645_a_at) / Fold change /veh CDHR5 (11726645_a_at) / RFU RCAN1 (11760418_a_at) / Fold change /veh RCAN1 (11760418_a_at) / RFU FAM167A (11723789_a_at) / Fold change /veh FAM167A (11723789_a_at) / RFU FAM26E (11764081_at) / Fold change /veh FAM26E (11764081_at) / RFU ISYNA1 (11749810_s_at) / Fold change /veh ISYNA1 (11749810_s_at) / RFU ACY1 (11761880_at) / Fold change /veh ACY1 (11761880_at) / RFU 11764098_at / Fold change /veh 11764098_at / RFU SAMD14 (11745864_x_at) / Fold change /veh SAMD14 (11745864_x_at) / RFU NPB (11741838_a_at) / Fold change /veh NPB (11741838_a_at) / RFU TMPRSS6 (11731388_a_at) / Fold change /veh TMPRSS6 (11731388_a_at) / RFU KRTAP10-2 (11738614_at) / Fold change /veh KRTAP10-2 (11738614_at) / RFU ARHGAP8 /// PRR5-ARHGAP8 (11727945_x_at) / Fold change /veh ARHGAP8 /// PRR5-ARHGAP8 (11727945_x_at) / RFU KRTAP5-7 /// NADSYN1 (11734609_at) / Fold change /veh KRTAP5-7 /// NADSYN1 (11734609_at) / RFU RASL12 (11751679_a_at) / Fold change /veh RASL12 (11751679_a_at) / RFU CDKN2B (11736163_a_at) / Fold change /veh CDKN2B (11736163_a_at) / RFU PRF1 (11729649_at) / Fold change /veh PRF1 (11729649_at) / RFU, ZNF638 /// ZNF638-IT1 / Fold change vs veh, ZNF638 /// ZNF638-IT1 / RFU, PANK3 / Fold change vs veh, PANK3 / RFU, SH3YL1 / Fold change vs veh, SH3YL1 / RFU, ZEB2 / Fold change vs veh, ZEB2 / RFU, NRIP1 / Fold change vs veh, NRIP1 / RFU, PTTG1IP / Fold change vs veh, PTTG1IP / RFU, CAPN2 / Fold change vs veh, CAPN2 / RFU, MED14 / Fold change vs veh, MED14 / RFU, SNORA58 / Fold change vs veh, SNORA58 / RFU, C1orf63 / Fold change vs veh, C1orf63 / RFU, LRRFIP1 / Fold change vs veh, LRRFIP1 / RFU, NDUFAF7 / Fold change vs veh, NDUFAF7 / RFU, SLC12A2 / Fold change vs veh, SLC12A2 / RFU, IBTK / Fold change vs veh, IBTK / RFU, ESF1 / Fold change vs veh, ESF1 / Fold change vs veh, TMEM50B / RFU, TAOK1 / Fold change vs veh, TAOK1 / RFU, ACBD3 / Fold change vs veh, ACBD3 / RFU, TMA16 / Fold change vs veh, TMA16 / RFU, RWDD3 / Fold change vs veh, RWDD3 / RFU, BCAT1 / Fold change vs veh, BCAT1 / RFU, EDEM3 / Fold change vs veh, EDEM3 / RFU, TMEM33 / Fold change vs veh, TMEM33 / RFU, WDR75 / Fold change vs veh, WDR75 / RFU, AHCTF1 / Fold change vs veh, AHCTF1 / RFU, TFRC / Fold change vs veh, TFRC / RFU, ZDHHC17 / Fold change vs veh, ZDHHC17 / RFU, NOM1 / Fold change vs veh, NOM1 / RFU, ARL8B / Fold change vs veh, ARL8B / RFU, ZBTB11 / Fold change vs veh, ZBTB11 / RFU, TAMM41 / Fold change vs veh, TAMM41 / RFU, KIAA1704 /// LOC100996395 / Fold change vs veh, KIAA1704 /// LOC100996395 / RFU, ING1 / Fold change vs veh, ING1 / RFU, TRMT61B / Fold change vs veh, TRMT61B / RFU, FUBP3 / Fold change vs veh, FUBP3 / RFU, TP53 / Fold change vs veh, TP53 / RFU, TNKS2 / Fold change vs veh, TNKS2 / RFU, ZFP14 / Fold change vs veh, ZFP14 / RFU, ACTR2 / Fold change vs veh, ACTR2 / RFU, PPP3R1 / Fold change vs veh, PPP3R1 / RFU, PIK3R1 / Fold change vs veh, PIK3R1 / RFU, HNRNPA1 / Fold change vs veh, HNRNPA1 / RFU, RNF170 / Fold change vs veh, RNF170 / RFU, ZNF28 / Fold change vs veh, ZNF28 / RFU, RNGTT / Fold change vs veh, RNGTT / RFU, OGT / Fold change vs veh, OGT / RFU, BRD1 / Fold change vs veh, BRD1 / RFU, MARS / Fold change vs veh, MARS / RFU, ZNF655 / Fold change vs veh, ZNF655 / RFU, FAHD1 / Fold change vs veh, FAHD1 / RFU, BDP1 / Fold change vs veh, BDP1 / RFU, LRRCC1 / Fold change vs veh, LRRCC1 / RFU, ARID1A / Fold change vs veh, ARID1A / RFU, ZNF146 / Fold change vs veh, ZNF146 / RFU, ZNF330 / Fold change vs veh, ZNF330 / RFU, GPN3 / Fold change vs veh, GPN3 / RFU, C9orf123 / Fold change vs veh, C9orf123 / RFU, N4BP2L2 / Fold change vs veh, N4BP2L2 / RFU, ARFIP1 / Fold change vs veh, ARFIP1 / RFU, FAM179B / Fold change vs veh, FAM179B / RFU, BCL10 / Fold change vs veh, BCL10 / RFU, UHRF1BP1L / Fold change vs veh, UHRF1BP1L / RFU, BET1 / Fold change vs veh, BET1 / RFU, CNOT2 / Fold change vs veh, CNOT2 / RFU, ZNF268 / Fold change vs veh, ZNF268 / Fold change vs veh, ZNF507 / RFU, DGCR2 / Fold change vs veh, DGCR2 / RFU, WDSUB1 / Fold change vs veh, WDSUB1 / Fold change vs veh, HSP90B1 /// MIR3652 / RFU, ADSS / Fold change vs veh, ADSS / RFU, GK / Fold change vs veh, GK / RFU, ZNF148 / Fold change vs veh, ZNF148 / RFU, TAF9 / Fold change vs veh, TAF9 / RFU, SLC1A5 / Fold change vs veh, SLC1A5 / RFU, SLMO2 / Fold change vs veh, SLMO2 / RFU, ABCC4 / Fold change vs veh, ABCC4 / RFU, LOC101060439 /// RAP1B / Fold change vs veh, LOC101060439 /// RAP1B / RFU, RFX7 / Fold change vs veh, RFX7 / RFU, GTPBP10 / Fold change vs veh, GTPBP10 / RFU, CNEP1R1 / Fold change vs veh, CNEP1R1 / RFU, BIVM-ERCC5 /// ERCC5 / Fold change vs veh, BIVM-ERCC5 /// ERCC5 / RFU, ILF3 / Fold change vs veh, ILF3 / RFU 11762660_at / Fold change /veh 11762660_at / RFU VCAN (11757783_s_at) / Fold change /veh VCAN (11757783_s_at) / RFU DDX43 (11728927_at) / Fold change /veh DDX43 (11728927_at) / RFU KRT8 (11758188_x_at) / Fold change /veh KRT8 (11758188_x_at) / RFU NKD1 (11759106_at) / Fold change /veh NKD1 (11759106_at) / RFU SRD5A1 (11742802_a_at) / Fold change /veh SRD5A1 (11742802_a_at) / RFU TPSAB1 /// TPSB2 (11721975_s_at) / Fold change /veh TPSAB1 /// TPSB2 (11721975_s_at) / RFU GSTM3 (11746129_a_at) / Fold change /veh GSTM3 (11746129_a_at) / RFU IL23R (11737362_x_at) / Fold change /veh IL23R (11737362_x_at) / RFU TMEM51 (11727254_a_at) / Fold change /veh TMEM51 (11727254_a_at) / RFU PIWIL2 (11732686_x_at) / Fold change /veh PIWIL2 (11732686_x_at) / RFU ORM1 (11744905_x_at) / Fold change /veh ORM1 (11744905_x_at) / RFU CCDC152 (11743942_at) / Fold change /veh CCDC152 (11743942_at) / RFU ECM1 (11717891_a_at) / Fold change /veh ECM1 (11717891_a_at) / RFU IL23R (11748794_a_at) / Fold change /veh IL23R (11748794_a_at) / RFU TNFAIP8L3 (11732012_x_at) / Fold change /veh TNFAIP8L3 (11732012_x_at) / RFU MBOAT4 (11741988_at) / Fold change /veh MBOAT4 (11741988_at) / RFU 11764193_at / Fold change /veh 11764193_at / RFU TMEM53 (11763286_at) / Fold change /veh TMEM53 (11763286_at) / RFU MAGEB2 (11727129_at) / Fold change /veh MAGEB2 (11727129_at) / RFU TMEM200A (11744735_a_at) / Fold change /veh TMEM200A (11744735_a_at) / RFU CCDC152 (11751479_a_at) / Fold change /veh CCDC152 (11751479_a_at) / RFU FAM211A (11726209_a_at) / Fold change /veh FAM211A (11726209_a_at) / RFU RGS16 (11746705_a_at) / Fold change /veh RGS16 (11746705_a_at) / RFU VCAN (11755009_s_at) / Fold change /veh VCAN (11755009_s_at) / RFU RHOB (11743442_s_at) / Fold change /veh RHOB (11743442_s_at) / RFU RGS16 (11720943_a_at) / Fold change /veh RGS16 (11720943_a_at) / RFU RGS16 (11720944_at) / Fold change /veh RGS16 (11720944_at) / RFU, VPS4B / Fold change vs veh, VPS4B / RFU, CREB1 / Fold change vs veh, CREB1 / RFU, DNAJC13 / Fold change vs veh, DNAJC13 / RFU, GNAQ / Fold change vs veh, GNAQ / RFU, CDK5R1 / Fold change vs veh, CDK5R1 / RFU, ZRANB3 / Fold change vs veh, ZRANB3 / RFU, CUL4A / Fold change vs veh, CUL4A / RFU, CCNY / Fold change vs veh, CCNY / RFU, UFL1 / Fold change vs veh, UFL1 / RFU, COG3 / Fold change vs veh, COG3 / RFU, DIAPH2 / Fold change vs veh, DIAPH2 / RFU, SKA2 / Fold change vs veh, SKA2 / RFU, AFF3 / Fold change vs veh, AFF3 / RFU, LMF1 / Fold change vs veh, LMF1 / RFU, IPO11 / Fold change vs veh, IPO11 / RFU, DFFB / Fold change vs veh, DFFB / RFU, FOXP1 / Fold change vs veh, FOXP1 / RFU, CARD8 / Fold change vs veh, CARD8 / RFU, STRN3 / Fold change vs veh, STRN3 / RFU, ADK / Fold change vs veh, ADK / RFU, RASSF2 / Fold change vs veh, RASSF2 / RFU, WIPF1 / Fold change vs veh, WIPF1 / RFU, LARP1B / Fold change vs veh, LARP1B / RFU, RASA1 / Fold change vs veh, RASA1 / RFU, RB1 / Fold change vs veh, RB1 / RFU, PPFIA1 / Fold change vs veh, PPFIA1 / RFU, MAT2A / Fold change vs veh, MAT2A / RFU, CCT5 / Fold change vs veh, CCT5 / RFU, WDR92 / Fold change vs veh, WDR92 / RFU, CUX1 / Fold change vs veh, CUX1 / RFU, TTC7A / Fold change vs veh, TTC7A / RFU, TMEM135 / Fold change vs veh, TMEM135 / RFU, DEPTOR / Fold change vs veh, DEPTOR / RFU, CPM / Fold change vs veh, CPM / RFU, DNAJB6 / Fold change vs veh, DNAJB6 / RFU, CACNA2D3 / Fold change vs veh, CACNA2D3 / RFU, DTX4 / Fold change vs veh, DTX4 / RFU, TFCP2 / Fold change vs veh, TFCP2 / RFU, GMCL1 /// GMCL1P1 / Fold change vs veh, GMCL1 /// GMCL1P1 / RFU, AEBP2 / Fold change vs veh, AEBP2 / RFU, SNHG1 /// SNORD22 /// SNORD25 /// SNORD26 /// SNORD27 /// SNORD28 /// SNORD29 /// SNORD31 / Fold change vs veh, SNHG1 /// SNORD22 /// SNORD25 /// SNORD26 /// SNORD27 /// SNORD28 /// SNORD29 /// SNORD31 / Fold change (Aza/veh), C12orf56 (ProbeSet 11735607_a_at) / Fold change (ACY-1035/veh), C12orf56 (ProbeSet 11735607_a_at) / Fold change (Aza/veh), FGFR1OP (ProbeSet 11751329_s_at) / Fold change (ACY-1035/veh), FGFR1OP (ProbeSet 11751329_s_at) / Fold change (Aza/veh), VPS36 (ProbeSet 11739960_a_at) / Fold change (ACY-1035/veh), VPS36 (ProbeSet 11739960_a_at) / RFU SYPL1 (11715823_x_at) / Fold change /veh SYPL1 (11715823_x_at) / RFU IGFBP7 (11715501_s_at) / Fold change /veh IGFBP7 (11715501_s_at) / RFU REEP3 (11722064_at) / Fold change /veh REEP3 (11722064_at) / RFU IGLL1 (11728026_x_at) / Fold change /veh IGLL1 (11728026_x_at): dose or concentration left out as unconfirmed
Conditions: ProbeSet 11749781_s_at; LIST B

Structure (SMILES): Nc1ncn([C@@H]2O[C@H](CO)[C@@H](O)[C@H]2O)c(=O)n1 [azacitidine]
- RFU, BCAT1: 11.21 RFU
